From patent publication US20090005424A9, “Composition and Method for Treating Fibrotic Diseases” (priority 2005, published 2009) come the findings set out here.

Test [1] concerns SD rat, Unilateral Ureteral Obstruction (UUO) model. The experiment in a line: Rat UUO model of renal interstitial fibrosis, histological score (Example 8). Type of test: in vivo. The following applies: UUO rats; AKF-PD 500 mg/kg/d, Enalapril 10 mg/kg/d by gavage; 14 days post surgery; Radford's method. Here is the method: Anti-fibrotic effect of AKF-PD was tested on a SD rat model for renal interstitial fibrosis induced by surgical ligation of single side ureter (Unilateral Ureteral Obstruction, UUO, model). Eight weeks old male SD rats (180 g˜220 g) were randomly divided into sham surgical group, disease model group, Enalapril (10 mg/kg/d) group and AKF-PD (500 mg/kg/d) group. […] The animals of the sham surgical group experienced the same surgical procedure except the ligation step. The respective drugs were administrated by gavage to rats in the groups of Enalapril and AKF-PD from one day prior to the procedure to 14 days post surgical procedure. Normal saline was administrated in a similar fashion to the rats in the groups of disease model and sham surgical. The animals were sacrificed 14 days after surgical procedure and their left kidney were removed for pathological (HE staining) examination. Histological scoring for interstitial compartment was done according to Radford's method (Radford et al., Predicting renal outcome in IgA nephropathy. J. Am. Soc. Nephrol. 8: 199-207(1997)).

The test system of test [2] is ICR mice injected with bleomycin. The test is described as follows: Bleomycin-induced mouse pulmonary fibrosis, histological score of lung tissue. Type of test: in vivo. The following applies: AKF-PD and PFD 500 mg/kg, captopril 12.5 mg/kg by gavage day 1 to 28, Szapiel's method. Here is the method: Under regular care condition, 7-10 weeks old, male, institute of cancer research (ICR) mice, weight 28-39 g, were randomly grouped as normal control, disease, disease/AKF-PD, disease/PFD and disease Captopril group.
Control group was injected with normal saline once day from day 2 to 15 days. Disease, disease/AKF-PD, disease/PFD and disease/captopril groups were injected with bleomycin once day from day 2 to 15. Control and disease groups were given 0.5% CMC by gavage once a day from day 1 to day 28. 500 mg/kg of AKF-PD CMC suspension and PD CMC suspension and 12.5 mg/kg captopril in saline were administered to respective groups by gavage once day from day 1 to day 28. All animals were sacrificed on day 29 and their lungs were removed for pathological (HE staining) examination.
Histological scoring for the lung tissue was done according Szapiel's method.

The next test deals with fibroblast. The test is described as follows: Inhibition of fibroblast, side-by-side comparison of substituents. Type of test: cell-based. The following applies: structural formula II, n=1.
The next test concerns Kidney Fibroblast. The test is described as follows: MTT proliferation assay, mouse kidney fibroblast. Type of test: cell-based. Here is the method:
(§1) Cell proliferation was measured by MTT assay. DMEM with 10% fetal serum was used as cell culture medium. The cells were prepared in suspension (1×10^5/ml), and 100 μL of the suspension was transferred to each well of a 96 wells plate. Once the cells were attached to the plastic, the culture was changed to serum free medium and continued for another 24 hours. The serum free medium was aspirated, and various concentrations of 1-(3′-fluorophenyl)-5-methyl-2(1H)-pyridone (AKF-PD) 1-(3′-bromophenyl)-5-methyl-2(1H)-pyridone (AKF-BR) or PIRFENIDONE (PFD) in 10% serum medium were added into each well with 5 replicates for each concentration. The cells were stained with MTT (10 μL per well) at 24, 48, and 72 hours post drug treatment. After 4 hrs of incubation, the medium with MTT was aspirated from each well. One hundred μL MTT solvent was added to each well for 15 min. The dissolved MTT was then measured with a plate reader at 570 nm.

Test [3] concerns Rat Pulmonary Fibroblasts. The experiment in a line: MTT proliferation assay, rat pulmonary fibroblasts. Type of test: cell-based. Here is the method:
as §1, with “and incubated” for “and continued”, “hours. Then, the” for “hours. The”, “(AKF-PD) or 1-(3′-bromophenyl)-5-Methyl-2(1H)-Pyridone” for “(AKF-PD) 1-(3′-bromophenyl)-5-methyl-2(1H)-pyridone (AKF-BR)”, “24, or 48” for “24, 48, and 72”, “15 min, and the” for “15 min. The”, “was” for “was then”
For orientation: Formazan colour is commonly taken as a measure of viable cells.

Test [4] concerns Kun Ming (KM) mice infected with Schistosoma miracidium. The test is described as follows: Schistosomial liver fibrosis in Kun Ming mice, egg granuloma area and immunohistology. Type of test: in vivo. The following applies: all after Pyquiton 650 mg/kg 4 days, AKF-PD 500 mg/kg daily gavage, γ-interferon 50,000 unit daily i.m., 8 weeks. The source says:
Kun Ming (KM) mice were infected with Schistosoma miracidium to induce schistosomial liver fibrosis. […] Ten Schistosoma miracidium were placed on shaved abdominal skin of each mouse for infection. […] Five hundred mg/kg AKF-PD were given daily by gavage to the disinfected mice of infected/AKF-PD group. The disinfected mice were given (i.m.) 50,000 unit γ-interferon daily. […] Drug or normal saline treatment was continued for 8 weeks. All mice were sacrificed one week after discontinue of drug treatment, and the left lobe of liver from each mouse was taken for pathological examination. Examination of HE-stained slices of liver tissue were carried out as follows. In general, after 16 weeks of Schistosoma miracidia infection, the area of schistosomo egg granuloma would directly correlate to the severity of liver fibrosis. Therefore, the area of schistosomo egg granuloma was measured using a high-resolution, color pathology graphic analyzer (HPIAS-1000). The sum of area of 5 granuloma with abundant eggs and the sum of area of 5 granuloma with few eggs were measured for each slice.

Turning to `CCOC(=O)[C@H](CCc1ccccc1)N[C@@H](C)C(=O)N1CCC[C@H]1C(=O)O` [Enalapril, reference compound], the “Histological Score for Interstitial Compartment” value in test [1] came to 9.21 ± 0.64.
For the molecule `C[C@H](CS)C(=O)N1CCC[C@H]1C(=O)O` [Captopril], the “Histological Score for Lung Tissue, Mean” value in test [2] came out at 2.7143.
As for `Cc1cccc(-n2cc(C)ccc2=O)c1` [5-methyl-1-(3′-methylphenyl)-2(1H)-pyridone], in the test with fibroblast, the activity inhibiting fibroblast entry was “activities inhibiting fibroblast”.
With `Cc1ccc(=O)n(-c2cccc(Br)c2)c1` [AKF-BR, 1-(3′-bromophenyl)-5-methyl-2(1H)-pyridone], the “inhibition of proliferation of kidney fibroblast” value with Kidney Fibroblast is on record as “capable of inhibiting the proliferation of kidney fibroblast”. The “Optical Density at 570 nm” value turned out to be 0.5937 ± 0.0307 in the test with Kidney Fibroblast (100 μg/ml, 24 h); 0.5811 ± 0.0161 in the test with Kidney Fibroblast (100 μg/ml, 48 h); 0.5363 ± 0.0158 with Kidney Fibroblast (100 μg/ml, 72 h); 0.5895 ± 0.0253 with Kidney Fibroblast (500 μg/ml, 24 h); 0.5418 ± 0.0221 in the test with Kidney Fibroblast (500 μg/ml, 48 h); 0.4731 ± 0.0249 with Kidney Fibroblast (500 μg/ml, 72 h). In addition, the “Optical Density at 570 nm” value in the test with Kidney Fibroblast (1000 μg/ml, 24 h) is listed as 0.5723 ± 0.0254; with Kidney Fibroblast (1000 μg/ml, 48 h), 0.5192 ± 0.0178; with Kidney Fibroblast (1000 μg/ml, 72 h), 0.4161 ± 0.0249; in test [3] (100 μg/ml, 24 h), 0.1654 ± 0.0143; in test [3] (100 μg/ml, 48 h), 0.1475 ± 0.0211; in test [3] (500 μg/ml, 24 h), 0.1342 ± 0.0237. Also, the “Optical Density at 570 nm” value in test [3] (500 μg/ml, 48 h) is on record as 0.1292 ± 0.0178; in test [3] (1000 μg/ml, 24 h) it was 0.1204 ± 0.0176; in test [3] (1000 μg/ml, 48 h), 0.1201 ± 0.0342. The “order of inhibitory effect” value (in the test on Kidney Fibroblast (kidney fibroblast); in test [3] (rat pulmonary fibroblasts)) was “AKF-PD>AKF-BR>pirfenidone” throughout. Moreover, the “suppression of proliferation of rat pulmonary fibroblasts” value in test [3] is listed as “could suppress proliferation of rat pulmonary fibroblasts”. Moreover, in the test on fibroblast, the activity inhibiting fibroblast result is “activities inhibiting fibroblast”.
For the molecule `Cc1ccc(=O)n(-c2cccc(I)c2)c1` [1-(3′-iodophenyl)-5-methyl-2(1H)-pyridone], in the test on fibroblast, the activity inhibiting fibroblast entry is reported as “activities inhibiting fibroblast”.

B1: γ-interferon: γ-interferon given i.m. 50,000 unit daily to disinfected mice (protein, UniProt P01580 23-155, looked up)
Interferon gamma: HGTVIESLESLNNYFNSSGIDVEEKSLFLDIWRNWQKDGDMKILQSQIISFYLRLFEVLKDNQAISNNISVIESHLITTFFSNSKAKKDAFMSIAKFEVNNPQVQRQAFNELIRVVHQLLPESSLRKRKRSRC
As for B1, the “Schistosomo Egg Granuloma Area, Mean” value is given as 83706.79 μm^2 in test [4] (granuloma with abundant eggs) and 32407.14 μm^2 in test [4] (granuloma with few eggs).
